Laboratory results from US20140038953A1, “COMPOSITIONS AND METHODS FOR CARDIOVASCULAR DISEASE” (THE GENERAL HOSPITAL CORPORATION, priority 2011, published 2014).
Entries after “also recorded” stand apart in the source; their conditions may differ. Marks after values point to notes of the source that are not given here.

Tests used:
Type in all cases: in vivo
[1] = system: LDLR−/− mice; test: Hepatic steatosis in LDLR−/− mice on high fat diet; details: high fat diet 20 weeks, 2.5 mg/kg ip daily
Description: Aortas were either immediately embedded and cryopreserved using optimal cutting-temperature medium (Sakura Tissue-Tek, Zoeterwoude, The Netherlands) or fixed in paraformaldehyde and embedded in parafin. The presence of calcification was determined by staining tissue sections with Alizarin red or Von Kossa. Lipid accumulation in tissue sections was visualized by staining with Oil Red O. Liver sections were prepared from paraformaldehyde-fixed tissue and stained with hematoxylin and eosin.

[2] = system: phospho-Smad 1/5/8; test: Phospho-Smad 1/5/8 immunohistochemistry in MGP−/− aortas; details: MGP−/− mice, 2.5 mg/kg once daily IP day 1 to 28
Description: MGP−/− mice were treated with either vehicle or the small molecule BMP type I receptor inhibitor compound 13 (2.5 mg/kg once daily IP) from day 1 to 28. Compound 13 is used as a BMP inhibitor positive control compound in these experiments. Whole aortas were harvested for phospho-Smad 1/5/8 (P-Smad) immunohistochemistry, a marker of BMP signaling, and for Alizarin Red staining of calcium. Osteogenic activity in aortas was visualized ex vivo by the uptake of a fluorescent bisphosphonate imaging probe. MGP−/− mice were also treated with vehicle or compound 13 to ascertain if inhibition of BMP signaling could impact survival, using Kaplan-Meier and Cox regression analysis. […] To further quantify aortic calcium, a fluorescent bisphosphonate agent that specifically binds to hydroxyapatite (OsteoSense 680 nm, Perkin Elmer) was used. (Aikawa E, et al. Multimodality molecular imaging identifies proteolytic and osteogenic activities in early aortic valve disease. Circulation. 2007; 115(3):377-386 and Zaheer A, et al. In vivo near-infrared fluorescence imaging of osteoblastic activity. Nature biotechnology. 2001; 19(12):1148-1154.) MGP−/− mice at 27 days of age treated with vehicle or compound 13 received OsteoSense via tail vein, and 24 h later, aortas were harvested for imaging. […]

[3] = system: MGP−/− mice; test: Survival of MGP−/− mice; details: 2.5 mg/kg/day IP from day 1, n=10 in each group
Description: (§1) MGP−/− mice were treated with either vehicle or the small molecule BMP type I receptor inhibitor compound 13 (2.5 mg/kg once daily IP) from day 1 to 28. Compound 13 is used as a BMP inhibitor positive control compound in these experiments. Whole aortas were harvested for phospho-Smad 1/5/8 (P-Smad) immunohistochemistry, a marker of BMP signaling, and for Alizarin Red staining of calcium. Osteogenic activity in aortas was visualized ex vivo by the uptake of a fluorescent bisphosphonate imaging probe. MGP−/− mice were also treated with vehicle or compound 13 to ascertain if inhibition of BMP signaling could impact survival, using Kaplan-Meier and Cox regression analysis.
Twenty MGP−/− mice were treated either with vehicle (n=10) or compound 13 (2.5 mg/kg/day IP, n=10) beginning at day 1 of life and followed for survival.

[4] = system: LDLR−/− mice; test: Blood biochemical analysis in LDLR−/− mice on high fat diet
Description: Female mice deficient for the low density lipoprotein receptor (LDLR^−/−) on a C57BL/6 background with appropriate control mice mice (eight weeks of age) were obtained from Jackson Laboratories (Bar Harbor, Me.). Animals were fed a western style diet formulated to match Paigen's Atherogenic Rodent Diet (42% fat, 0.15% cholesterol, 19.5% casein; Research Diets Inc., New Brunswick, N.J.).
[…], white blood count, hematocrit, hemoglobin, and platelets were analyzed using a HemaTrue™ Hematology Analyzer (Heska AG, Switzerland). Urea nitrogen, glucose, alkaline phosphatase, total protein, alanine transaminase and creatinine were determined using a Spotchem EZ SP-4430 POCT analyzer (Arkray, Inc., Kyoto, Japan). HDL and LDL levels were determined using a fluorescence quantification kit (K613-100, Biovision, Mountain View, Calif.)

[5] = system: MGP−/− mice; test: Aortic calcification in MGP−/− mice (Alizarin red, OsteoSense); details: for aortic tissue calcium (Alizarin red staining): 28 days old
Description: as §1
MGP−/− mice were treated with intraperitoneal (IP) injections of either vehicle or compound 13 at 2.5 mg/kg/day from day 1-28. At day 28, aortas were harvested for both histology and RNA isolation. […] To further quantify aortic calcium, a fluorescent bisphosphonate agent that specifically binds to hydroxyapatite (OsteoSense 680 nm, Perkin Elmer) was used. (Aikawa E, et al. Multimodality molecular imaging identifies proteolytic and osteogenic activities in early aortic valve disease. Circulation. 2007; 115(3):377-386 and Zaheer A, et al. In vivo near-infrared fluorescence imaging of osteoblastic activity. Nature biotechnology. 2001; 19(12):1148-1154.) MGP−/− mice at 27 days of age treated with vehicle or compound 13 received OsteoSense via tail vein, and 24 h later, aortas were harvested for imaging. […] The reduction in BMP signaling and aortic calcification observed with compound 13 treatment of MGP−/− mice was associated with a >5-fold reduction in aortic Wnt3a gene expression, implicating the Wnt signaling pathway as an important mediator of BMP-dependent osteogenic differentiation (P<0.01).
MGP−/− mice were treated with vehicle (n=7), compound 13 (2.5 mg/kg/day IP, n=6), or ALK3-Fc (2 mg/kg QOD IP, n=4) beginning on day 1 after birth. At day 27, mice were injected via the tail vein with a fluorescent bisphosphonate probe (Osteosense 680 nm, 2 nmol per mouse) that targets tissue calcification. Twenty-four hours later, aortae were harvested and imaged.

[6] = listed as compound 13, 2.5 mg/kg
[7] = LDLR−/− mice, HFD 20 weeks, in words
[8] = female LDLR−/− mice, high fat diet 6 weeks, compound 13 2.5 mg/kg ip daily, ALK3-Fc 2 mg/kg ip every other day, mean ± SEM
[9] = female LDLR−/− mice, high fat diet 20 weeks, 2.5 mg/kg ip daily, mean ± SEM

With `c1ccc2c(-c3cnn4cc(-c5ccc(N6CCNCC6)cc5)cnc34)ccnc2c1` [Compound 13, 4-[6-(4-piperazin-1-ylphenyl)pyrazolo[1,5-a]pyrimidin-3-yl]quinoline] the hepatic steatosis ([1]; 2.5 mg/kg) was “protected from hepatic steatosis”, the hepatic steatosis [1, 6] was “could be prevented” and the “aortic P-Smad (Smad 1/5/8 phosphorylation)” value ([2]; 2.5 mg/kg) was “reduced aortic P-Smad”. For the same molecule, the “aortic P-Smad (Smad 1/5/8 phosphorylation)” value [2, 6] was “reduced BMP signaling”, the “Cox hazard ratio (survival)” value [3] was 0.04 and the “survival compared to vehicle-treated controls” value [3] was “improved survival”. For the same molecule, the “serum alanine transaminase (ALT) levels vs vehicle” value ([4]; LDLR−/− mice on HFD, in words) was “reduced”, the “serum alkaline phosphatase (ALP) levels vs vehicle” value ([4]; LDLR−/− mice on HFD, in words) was “reduced” and the “HDL cholesterol levels vs vehicle” value [4, 7] was “not altered”. The “serum LDL cholesterol levels vs vehicle” value [4, 7] was “lower serum LDL cholesterol levels”, the “total cholesterol levels vs vehicle” value [4, 7] was “reduced total cholesterol levels” and the “serum LDL cholesterol levels vs vehicle” value ([4]; LDLR−/− mice, HFD 20 weeks, in words, listed as compound 13) was “reduced total cholesterol levels and LDL levels”. For the same molecule, the Alanine transaminase [4, 8] was 233 ± 56 IU/L, the Alkaline phosphatase [4, 8] was 112 ± 20 IU/L and the Blood urea nitrogen [4, 8] was 24 ± 2 mg/dL. For the same molecule, the Cholesterol [4, 8] was 1553 ± 77*^,§ mg/dl, the Creatinine [4, 8] was 0.5 ± 0.1 mg/dL and the Glucose [4, 8] was 259 ± 20 mg/dL. It also gave a Hemoglobin [4, 8] of 12.9 ± 1.5 g/dL, a Total protein [4, 8] of 5.1 ± 0.1 g/dL and a Triglycerides [4, 8] of 112 ± 15 mg/dL. The Alanine transaminase [4, 9] was 130 ± 21‘ IU/L, the Alkaline phosphatase [4, 9] was 84 ± 11 IU/L and the Blood urea nitrogen [4, 9] was 25 ± 2 mg/dL. It also gave a Cholesterol [4, 9] of 1401 ± 87 mg/dL, a Creatinine [4, 9] of 0.4 ± 0.0 mg/dL and a Glucose [4, 9] of 230 ± 19 mg/dL. It also gave an HDL [4, 9] of 73.8 ± 26.5 mg/dL, a Hemoglobin [4, 9] of 12.9 ± 0.8 g/dL and an LDL [4, 9] of 1166.3 ± 257.3 mg/dL. The Total protein [4, 9] was 4.3 ± 0.4 g/dL, the Triglycerides [4, 9] was 135 ± 16 mg/dL and the “aortic tissue calcium (Alizarin red staining)” value ([5]; treated from day 1) was “reduction in tissue calcium levels”. For the same molecule, the “aortic tissue calcium (Alizarin red staining)” value ([5]; treated from day 1, listed as compound 13) was “less calcification; also recorded: reduced vessel calcification”, the “arterial calcification by OsteoSense fluorescence” value ([5]; day 1-28, compound 13 2.5 mg/kg/day IP, ALK3-Fc 2 mg/kg QOD IP) was “reduction of arterial calcification; also recorded: marked reduction in arterial calcification; also recorded: reduces vascular calcification” and the “reduction in aortic osteogenic activity compared to vehicle-treated controls” value ([5]; fluorescent bisphosphonate probe, n=6 in each group) was 81%. The “aortic osteogenic activity, normalized average intensity ±SEM” value ([5]; vehicle 1.0±0.10) was 0.19±0.05.
